This is an account of results in patent publication US7396946B2, “Compound for treatment of external secretion disorders” (Sucampo AG, priority 1999, dated 2008).

Marks after values point to notes of the source that are not given here.

Assay [1] has as its system Rabbit Dry-eye Syndrome Model, which was Induced by Trigeminal Denervation. Nature of the assay: Keratoepithelial lesion score in rabbit dry-eye syndrome model induced by trigeminal denervation (Test Example 2). Conditions: for Keratoepithelial lesion: score 0-4 by stained area (Table 2), 5 eyes. The format is in vivo, male Japanese albino rabbits (Std:JW/CSK). The protocol: (§1) Fifteen male Japanese albino rabbits (Std:JW/CSK) were used.
(§2) (2) Generating Rabbit Dry-eye Syndrome Model by Trigeminal Denervation.
(§3) Urethane (ALDRICH) was administered i.p. at the dose of 1 g/kg to the rabbits of which occipital hair had been shaved.
(§4) After disinfecting of the shaved area, midline incision of the skin was made from the frontal bone to the ear root, and the muscular tissue around the periosteum, temporal bone and manidibular articular process were detached. After the detachment, a hole of 2×1.5 cm in size was made in the bone from the parietal medial region to the temporal region by means of the bone drill (URAWA KOGYO Co., Ltd. MINITOR C-130) under the surgical microscope (KONAN CAMERA R&I Inc., PMO-50). Then, the dura was detached from the cranial bone while cotton bud was kept inserted between the temporal bone and the dura. After the detachment was made up to the cranial base, detachment was further made toward the medial border of the petrous part of temporal bone in the carnial cavity, to find the trigeminal nerve in the petrous part. Then, the dura of about 1 to 2 mm on the nasal side of the semilunar ganglion was incised. After the incision, the two branches of nerve fascicle, i.e. the first branch (ocular nerve) of the trigeminal nerve and the second branch (maxillary nerve) were pulled laterally and cut with corneoscleral scissors. Immediately after the operation, miosis of the ipsilateral eye was confirmed and then the cotton kept inserted was removed, and the skin at the head was closed with suture. After the operation, an antibiotic (MYCILLIN SQL® Meiji) was administered i.m. at the dose of 0.1 ml/kg.
(§5) The trigeminal denervation was made only on the left eye side, while on the right eye side, no trigeminal denervation nor sham operation was made.
(§6) (3) Method of Administration.
(§7) 13,14-dihydro-15-keto-16,16-difluoro-PGE1 was used as an active ingredient of the present invention to prepare test eyedrops containing 0.0001% and 0.001% of the compound. As a control, the vehicle of the eyedrops without the active ingredient was used.
(§8) Each of the compositions was instilled to the eyes everyday at the volume of 30 μl/eye two times a day (at 10:00 and 18:00) for two weeks. Five eyes per each of the test groups and the control group were treated and then examined for the whole tear secretion, the basal tear secretion and the keratoepithelial lesion as follows.
iii) Keratoepithelial Lesion
Before the start of instillation (week 0) and 1, 2, and 3 weeks after the start, the keratoepithelial lesion was evaluated two hours after the first instillation on the day of examination.
Each animal was placed in a stainless steel fixator, and given instillation of 50 μl of the mixture of 1% rose bengal and 1% fluorescein to stain their keratoconjunctival epithelium.

For assay [2], the system named is rats (Crj:CD strain). Nature of the assay: Exaltation of salivation, saliva evaluated visually (Test Example 3). As to conditions: 1 mg/kg orally once a day, 16 animals per group. The format is in vivo, Male and female rats (Crj:CD strain). The protocol:
The effect of the composition of the present invention on salivary secretion was determined. (1) Test Animals Male and female rats (Crj:CD strain) were used. Each of the test and control groups contains 16 animals. (2) Method of Administration 13,14-dihydro-15-keto-16,16-difuloro-PGE1 was used as an active ingredient of the present invention to prepare test solution containing 0.2 mg/ml of the compound. 5 ml/kg of the solution (1 mg/kg of the compound) was forcedly administrated orally once a day. For the animals of control group, 5 ml/kg of the vehicle without the active ingredient was administrated once a day. The administration was continued for four weeks. (3) Examination The amount of the saliva of the test group and control group was evaluated visually everyday.

Assay [3] has as its system rats (SD strain). The assay is described as follows: Exaltation of salivation, salivary weight on paper filter (Test Example 4). The format is in vivo, Male rats (SD strain). Conditions: 1.0 mg/kg orally once a day for 10 days. The protocol: The effect of the composition of the present invention on salivary secretion was determined. (1) Test Animals Male rats (SD strain) were used. Each of the test and control groups contains 8 animals. (2) Method of Administration 13,14-dihydro-15-keto-16,16-difuloro-PGE1 was used as an active ingredient of the present invention to prepare test solution containing 0.2 mg/ml of the compound. 5 ml/kg of the solution (1.0 mg/kg of the compound) was forcedly administrated orally once a day. For the animals f control group, 5 ml/kg of vehicle without the active ingredient was administrated once a day. The administration was continued for 10 days. (3) Examination The amount of the saliva of the test group and control group was measured one hour after the administration on 10th day. The edge of a paper filter (Schirmer's test strip, Showa Yakuhin Kako Co., Ltd.) was inserted between lower gingiva and mandibula. Three minutes after, the paper filter was removed and the weight of the saliva was calculated by the following formula. weight of saliva=(the weight of paper filter including saliva)−(weight of only paper filter) (4) Result

For assay [4], the system named is Rabbit Dry-eye Syndrome Model, which was Induced by Trigeminal Denervation. Nature of the assay: Basal tear secretion in rabbit dry-eye syndrome model induced by trigeminal denervation (Test Example 2). In kind it is in vivo, male Japanese albino rabbits (Std:JW/CSK). Conditions: for basal tear secretion: 5 eyes. How it is done:
as §1, §2, §3, §4, §5, §6, §7, §8
Before the start of the instillation (week 0), and 1, 2, and 3 weeks after the start, the basal tear secretion was measured 2 hours after the 1st instillation on the day of the examination.
Keratoconjunctiva was anesthetized by instillation of 4% lidocaine (Xylocalne® 4% for ophthalmic solution; Fujisawa Pharmaceutical Co., Ltd.), the eye drops and the tear around the eyelid were wiped off about 5 minutes after and loss of keratoconjunctival esthesia was confirmed with the Cochet-Bonnet type esthesiometer. Then, one edge of the Shirmer's test strip was inserted into the conjunctival sac and kept there for 5 minutes. The length of the moistened part was read from the scale on the strip.
The basal tear secretion was expressed by mean value per minute calculated from the 4-minutes value obtained by subtracting the initial 1-minute value from the 5-minutes Sirmer's test, so that the spontaneous volume of the tear retained in the conjunctival sac might be excluded.

Setting [5] is: 0.0001% eyedrops 30 μl/eye two times a day for two weeks, week 1.
Where [6] appears, read: 0.0001% eyedrops 30 μl/eye two times a day for two weeks, week 2.
[7] abbreviates: 0.0001% eyedrops 30 μl/eye two times a day for two weeks, week 3.
The mark [8] stands for this setting: 0.001% eyedrops 30 μl/eye two times a day for two weeks, week 1.
[9] abbreviates: 0.001% eyedrops 30 μl/eye two times a day for two weeks, week 2.
[10] abbreviates: 0.001% eyedrops 30 μl/eye two times a day for two weeks, week 3.
Setting [11] is: dry-eye syndrome model animals, 0.0001% and 0.001% eyedrops.
Setting [12] is: test group 0.0001% eyedrops, before administration (after operation, baseline).
[13] abbreviates: test group 0.001% eyedrops, before administration (after operation, baseline).

Consider `CCCCC(F)(F)C(=O)CCC1C(O)CC(=O)C1CCCCCCC(=O)O` (stereo not shown) [13,14-dihydro-15-keto-16,16-difluoro-PGE1], for which the Keratoepithelial lesion in assay [1] (setting [5]) is 1.00 ± 0.27^[*^]++ score; in assay [1] (setting [6]), 0.50 ± 0.16^[*^]++ score; in assay [1] (setting [7]), 0.40 ± 0.19^#++ score; in assay [1] (setting [8]), 0.70 ± 0.34^++ score; in assay [1] (setting [9]), 0.10 ± 0.10^[++] score; in assay [1] (setting [10]) it was 0.10 ± 0.10^[##][++] score. Besides, the Keratoepithelial lesion in assay [1] (setting [12]) and in assay [1] (setting [13]) was 3.00 ± 0.32^[**^] score each time. Also, the “keratoconjunctival lesion accompanied by the decrease of the tear secretion (result in words)” value in assay [1] (setting [11]) was “improved”. Moreover, in assay [2] (10th day after the start of the administration), the “rats in which exaltation of saliva was observed” value is 8 of 16. The “rats showing salivary exaltation” value in assay [2] (subsequent to the 22nd day after the start) amounted to 16 rats. Besides, in assay [3] (compared with the control group), the “salivary secretion (result in words)” value was “significantly increased”. The “Salivary weight (mean ± S.E.)” value in assay [3] (one hour after the administration on 10th day, paper filter 3 minutes, 8 animals) is recorded as 18.1 ± 5.6 mg. In addition, the basal tear secretion in assay [4] (setting [5]) was 1.53 ± 0.26^[+] mm/min; in assay [4] (setting [6]) it was 1.60 ± 0.11**^++ mm/min; in assay [4] (setting [7]), 1.48 ± 0.17^#[++] mm/min; in assay [4] (setting [8]) it was 2.00 ± 0.12*^##++ mm/min; in assay [4] (setting [9]) it was 2.00 ± 0.18*^##++ mm/min; in assay [4] (setting [10]) it was 2.00 ± 0.14*^##++ mm/min. For the same compound, the basal tear secretion is 0.43 ± 0.06^[**^] mm/min in assay [4] (setting [12]) and 0.43 ± 0.08 mm/min in assay [4] (setting [13]). In addition, the “decreased basal tear secretion (result in words)” value in assay [4] (setting [11]) was “improved”.
